21 compounds from patent US20220313701A1, “MODULATORS OF TREX1” (Constellation Pharmaceuticals, Inc., priority 2019, published 2022) can be followed below.

Test [1] deals with T1, human TREX2 (residues M44-A279) (Homo sapiens, UniProt Q9BQ50).
T1 construct: human TREX2 (residues M44-A279, expressed in E. coli); His-Tev (His tag with TEV site) (N); made in house; host or cells: E. coli
T1 sequence (Q9BQ50 44-279 isoform Q9BQ50-1): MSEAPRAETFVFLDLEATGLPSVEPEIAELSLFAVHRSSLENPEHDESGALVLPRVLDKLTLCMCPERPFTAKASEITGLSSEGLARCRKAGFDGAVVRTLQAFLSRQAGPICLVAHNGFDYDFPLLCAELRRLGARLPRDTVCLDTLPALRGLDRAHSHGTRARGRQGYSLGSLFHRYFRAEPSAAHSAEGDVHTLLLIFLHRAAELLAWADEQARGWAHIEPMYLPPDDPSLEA
The test is described as follows: TREX2 Biochemical Assay (fluorescence assay, degradation of dsDNA substrate). Conditions: 2.5 nM TREX2, 60 nM dsDNA substrate, 25 minutes at room temperature. As to the method:
Degradation of the dsDNA liberates free fluorophore to produce a fluorescent signal. Specifically, 7.5 μL of N-terminally His-Tev tagged human TREX2 (residues M44-A279, expressed in E. coli and purified in house) in reaction buffer (50 mM Tris (pH 7.4), 150 mM NaCl, 2 mM DTT, 0.1 mg/mL BSA, 0.01% (v/v) Tween-20 and 100 mM MgCl2) was added to a 384-well Black ProxiPlate Plus (Perkin Elmer) which already contained compound (150 nL) at varying concentrations as a 10 point dose-response in DMSO. To this was added 7.5 μL of dsDNA substrate (Strand A: 5′ TEX615/GCT AGG CAG 3′; Strand B: 5′ CTG CCT AGC/IAbRQSp (IDT)) in reaction buffer. Final concentrations were 2.5 nM TREX2, 60 nM dsDNA substrate in reaction buffer with 1.0% DMSO (v/v). After 25 minutes at room temperature, reactions were quenched by the addition of 5 μL of stop buffer (same as reaction buffer plus 200 mM EDTA). Final concentrations in the quenched reaction mixture were […] TREX2, 45 nM DNA and 50 mM EDTA in a volume of 20 μL. After a 5-minute incubation at room temperature, plates were read in a laser sourced Envision (Perkin-Elmer), measuring fluorescence at 615 nm following excitation w/570 nm light. IC50 values were calculated by comparing the measured fluorescence at 615 nm ratio relative to control wells pre-quenched w/stop buffer (100% inhibition) and no inhibitor (0% inhibition) controls as using non-linear least square four parameter fits and either Genedata or GraphPad Prism (GraphPad Software, Inc.).

Test [2] concerns the target T2, full length human TREX1 (Homo sapiens, UniProt Q9NSU2).
T2 construct: N-terminally His-Tev tagged full length human TREX1; His-Tev (His tag with TEV site) (N); made in house; host or cells: E. coli
T2 sequence (Q9NSU2 1-314): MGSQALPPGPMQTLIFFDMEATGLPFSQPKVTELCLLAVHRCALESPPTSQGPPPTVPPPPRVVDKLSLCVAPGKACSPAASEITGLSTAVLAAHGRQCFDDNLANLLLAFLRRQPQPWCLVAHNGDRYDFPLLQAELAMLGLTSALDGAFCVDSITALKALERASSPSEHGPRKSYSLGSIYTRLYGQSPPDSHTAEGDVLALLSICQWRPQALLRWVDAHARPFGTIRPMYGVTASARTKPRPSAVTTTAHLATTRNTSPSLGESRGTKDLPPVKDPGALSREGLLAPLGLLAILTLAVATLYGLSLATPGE
The test is described as follows: TREX1 Biochemical Assay (fluorescence assay, degradation of dsDNA substrate). Conditions: 150 pM TREX1, 60 nM dsDNA substrate, 25 minutes at room temperature. As to the method: Degradation of the dsDNA liberates free fluorophore to produce a fluorescent signal. Specifically, 7.5 μL of N-terminally His-Tev tagged full length human TREX1 (expressed in E. coli and purified in house) in reaction buffer (50 mM Tris (pH 7.4), 150 mM NaCl, 2 mM DTT, 0.1 mg/mL BSA, 0.01% (v/v) Tween-20 and either 100 mM MgCl2) was added to a 384-well Black ProxiPlate Plus (Perkin Elmer) which already contained compound (150 nL) at varying concentrations as a 10 point dose-response in DMSO. To this was added 7.5 μL of dsDNA substrate (Strand A: 5′ TEX615/GCT AGG CAG 3′; Strand B: 5′ CTG CCT AGC/IAbRQSp (Integrated DNA Technologies)) in reaction buffer. Final concentrations were 150 pM TREX1, 60 nM dsDNA substrate in reaction buffer with 1.0% DMSO (v/v). After 25 minutes at room temperature, reactions were quenched by the addition of 5 μL of stop buffer (same as reaction buffer plus 200 mM EDTA). Final concentrations in the quenched reaction were 112.5 pM TREX1, 45 nM DNA and 50 mM EDTA in a volume of 20 μL. After a 5-minute incubation at room temperature, plates were read in a laser sourced Envision (Perkin-Elmer), measuring fluorescence at 615 nm following excitation w/570 nm light. IC50 values were calculated by comparing the measured fluorescence at 615 nm ratio relative to control wells pre-quenched w/stop buffer (100% inhibition) and no inhibitor (0% inhibition) controls as using non-linear least square four parameter fits and either Genedata or GraphPad Prism (GraphPad Software, Inc.).

SMILES strings stand for the structures.

Turning to `Cc1nn(C)cc1-c1cc(CO)cc(N2CCC(O)(c3ccc(F)c(F)c3)CC2)n1` [Example 44, 4-(3,4-difluorophenyl)-1-(6-(1,3-dimethyl-1H-pyrazol-4-yl)-4-(hydroxymethyl)pyridin-2-yl)piperidin-4-ol], the IC50 in test [1] lay in the range of 10 to 100 µM; in test [2], 0.1 to 1 µM.
The matching figures for `Cc1nn(C)cc1-c1cc(C(C)(C)O)cc(N2CCC(O)(c3ccc(F)c(F)c3)CC2)n1` [Example 45, 4-(3,4-difluorophenyl)-1-(6-(1,3-dimethyl-1H-pyrazol-4-yl)-4-(2-hydroxypropan-2-yl)pyridin-2-yl)piperidin-4-ol]: 10 to 100 µM and below 0.1 µM.
The matching figures for `Cc1nn(C)cc1-c1cc(C(F)(F)F)cc(N2CCC(O)(c3ccc(F)c(F)c3)CC2)n1` [Example 46, 4-(3,4-difluorophenyl)-1-(6-(1,3-dimethyl-1H-pyrazol-4-yl)-4-(trifluoromethyl)pyridin-2-yl)piperidin-4-ol]: above 100 µM and 0.1 to 1 µM.
The matching figures for `Cc1nn(C)cc1-c1cncc(N2CCC(O)(c3cc(F)c(F)c(F)c3)CC2)n1` [Example 47, 1-(6-(1,3-dimethyl-1H-pyrazol-4-yl)pyrazin-2-yl)-4-(3,4,5-trifluorophenyl)piperidin-4-ol]: 10 to 100 µM and below 0.1 µM.
Take `Cc1nn(C(C)C)cc1-c1cncc(N2CCC(O)(c3ccc(F)c(F)c3)CC2)n1` [Example 48, 4-(3,4-difluorophenyl)-1-(6-(1-isopropyl-3-methyl-1H-pyrazol-4-yl)pyrazin-2-yl)piperidin-4-ol]: the IC50 in test [1] is 10 to 100 µM; in test [2], below 0.1 µM.
The matching figures for `Cc1nn(C)cc1-c1cc(N2CCC(O)(c3ccc(F)c(F)c3)CC2)ccn1` [Example 49, 4-(3,4-difluorophenyl)-1-(2-(1,3-dimethyl-1H-pyrazol-4-yl)pyridin-4-yl)piperidin-4-ol]: above 100 µM and 1 to 10 µM.
The matching figures for `Cn1nc(C(F)(F)F)cc1-c1cncc(N2CCC(O)(c3ccc(F)c(F)c3)CC2)n1` [Example 50, 4-(3,4-difluorophenyl)-1-(6-(1-methyl-3-(trifluoromethyl)-1H-pyrazol-5-yl)pyrazin-2-yl)piperidin-4-ol]: above 100 µM and above 10 µM.
The matching figures for `Cc1nn(C)cc1-c1ccnc(N2CCC(O)(c3ccc(F)c(F)c3)CC2)n1` [Example 51, 4-(3,4-difluorophenyl)-1-(4-(1,3-dimethyl-1H-pyrazol-4-yl)pyrimidin-2-yl)piperidin-4-ol]: above 100 µM and 0.1 to 1 µM.
Take `Cc1noc(C)c1-c1cncc(N2CCC(O)(c3ccc(F)c(F)c3)CC2)n1` [Example 52, 4-(3,4-difluorophenyl)-1-(6-(3,5-dimethylisoxazol-4-yl)pyrazin-2-yl)piperidin-4-ol]: the IC50 is above 100 µM in test [1] and 1 to 10 µM in test [2].
For the compound `Cc1cc(-c2cncc(N3CCC(O)(c4ccc(F)c(F)c4)CC3)n2)n(C)n1` [Example 53, 4-(3,4-difluorophenyl)-1-(6-(1,3-dimethyl-1H-pyrazol-5-yl)pyrazin-2-yl)piperidin-4-ol], the figures for the IC50 in test [1] and in test [2] were above 100 µM and 1 to 10 µM, respectively.
As for `Cc1nn(C)cc1-c1nccc(N2CCC(O)(c3ccc(F)c(F)c3)CC2)n1` [Example 54, 4-(3,4-difluorophenyl)-1-(2-(1,3-dimethyl-1H-pyrazol-4-yl)pyrimidin-4-yl)piperidin-4-ol], the results for the IC50 in test [1] and in test [2] were above 100 µM and 1 to 10 µM, respectively.
Regarding `Cc1nn(C)cc1-c1ccnc(N2CCC(O)(c3ccc(F)c(F)c3)CC2)c1` [Example 55, 4-(3,4-difluorophenyl)-1-(4-(1,3-dimethyl-1H-pyrazol-4-yl)pyridin-2-yl)piperidin-4-ol], the concentration for half-maximal inhibition (IC50) in test [1] is above 100 µM; in test [2], above 10 µM.
The matching figures for `Cc1nn(C)cc1-c1cncc(N2CCC(O)(c3ccc(F)cc3)C(F)(F)C2)n1` (stereo not drawn) [Example 56, 1-(6-(1,3-dimethyl-1H-pyrazol-4-yl)pyrazin-2-yl)-3,3-difluoro-4-(4-fluorophenyl)piperidin-4-ol]: above 100 µM and 0.1 to 1 µM.
The matching figures for `Cc1nc(-c2cn(C)nc2C)cc(N2CCC(O)(c3ccc(F)c(F)c3)CC2)n1` [Example 57, 4-(3,4-difluorophenyl)-1-(6-(1,3-dimethyl-1H-pyrazol-4-yl)-2-methylpyrimidin-4-yl)piperidin-4-ol]: above 100 µM and below 0.1 µM.
As to `Cc1nn(C)cc1-c1cc(N2CCC(O)(c3ccc(F)c(F)c3)CC2)ncn1` [Example 58, 4-(3,4-difluorophenyl)-1-(6-(1,3-dimethyl-1H-pyrazol-4-yl)pyrimidin-4-yl)piperidin-4-ol], the results for the concentration for half-maximal inhibition (IC50) in test [1] and in test [2] were 10 to 100 µM and below 0.1 µM, respectively.
For the compound `Cc1nn(C)cc1-c1cc(N2CCC(O)(c3ccc(F)c(F)c3)CC2)nc(-c2ccccc2)n1` [Example 59, 4-(3,4-difluorophenyl)-1-(6-(1,3-dimethyl-1H-pyrazol-4-yl)-2-phenylpyrimidin-4-yl)piperidin-4-ol], the figures for the half-inhibitory concentration (IC50) in test [1] and in test [2] were above 100 µM and 1 to 10 µM, respectively.
Consider `Cn1cc(-c2cc(-c3cnn(C)c3)nc(N3CCC(O)(c4cccc(F)c4)CC3)c2)cn1` [Example 60, 1-(4,6-bis(1-methyl-1H-pyrazol-4-yl)pyridin-2-yl)-4-(3-fluorophenyl)piperidin-4-ol], for which the IC50 is above 100 µM in test [1] and 1 to 10 µM in test [2].
In the case of `Cn1cc(-c2cc(N3CCC(O)(c4cccc(F)c4)CC3)cc(-c3cnn(C)c3)n2)cn1` [Example 61, 1-(2,6-bis(1-methyl-1H-pyrazol-4-yl)pyridin-4-yl)-4-(3-fluorophenyl)piperidin-4-ol], the half-maximal inhibitory concentration (IC50) in test [1] was above 100 µM; in test [2], 1 to 10 µM.
The matching figures for `Cc1nn(C)c(C)c1-c1cncc(N2CCC(O)(c3ccc(F)c(F)c3)CC2)n1` [Example 62, 4-(3,4-difluorophenyl)-1-(6-(1,3,5-trimethyl-1H-pyrazol-4-yl)pyrazin-2-yl)piperidin-4-ol]: 10 to 100 µM and below 0.1 µM.
The matching figures for `CCn1cc(-c2cncc(N3CCC(O)(c4ccc(F)c(F)c4)CC3)n2)c(C)n1` [Example 63, 4-(3,4-difluorophenyl)-1-(6-(1-ethyl-3-methyl-1H-pyrazol-4-yl)pyrazin-2-yl)piperidin-4-ol]: 1 to 10 µM and below 0.1 µM.
The matching figures for `O=C(NCCc1ccccc1)c1cncc(N2CCC(O)(c3ccc(F)cc3)CC2)n1` [Example 64, 6-(4-(4-fluorophenyl)-4-hydroxypiperidin-1-yl)-N-phenethylpyrazine-Z-carboxamide]: above 100 µM and 1 to 10 µM.

As a reminder, the IC50 is the point on the concentration scale where inhibition reaches its midpoint.
